In PMC6611822, “Enhancement of laccase activity by pre-incubation with organic solvents” (Scientific Reports, 2019):

B1: DLac (Cerrena) (protein)
chain: AVGPVTDIHIVNKDIAPDGFSRPSVLAGGTFPGPLITGQKGDNFKLNVVDDLTDASMLKSTSIHWHGFFQKGTNWADGPAFVNQCPISTGNSFLYNFQVPDQAGTYWYHSHLSTQYCDGLRGAFVVYDPTDPHKALYDVDDESTVITLADWYHTLARQIVGVAIADTTLINGLGRNTNGPADAALAVINVEAGKRYRLRLVSISCDPNYVFSIDNHDFNIIEVDGVNSKPLNVDSIQIFAGQRYSAVLNANQPVGNYWVRANPNLGTTGFTGGINSAILRYKGAPVAEPTTTQTTSTKPLQEPNLRPLVSMPVPGSATPGGVDVVHNLILGFSAGKFTINGAAFTPPSVPVLLQILSGTTNAQDLLPSGSVITLPIGKTIELTLAAGVLGGPHPFHLHGHNFHVVRSAGQTTPNYVDPIVRDVVNTGGTGDNVTIRFTTDNPGPWFLHCHIDWHLEAGFAVVFAEGVNQTNAANPTPADWNNLCNIYNALADGDK
notes: source not restated here; 494 C atoms superimposed in the crystal structures

Assays:
AbLac = test system: T1, AbLac; settings: 0% acetone pre-incubation; pH 3.0 citrate-phosphate; 30 °C
T1 construct: gene lcc1

TvLac = test system: T2, TvLac; settings: 0% acetone pre-incubation; pH 3.0 citrate-phosphate; 30 °C
T2 construct: gene LCC1

purified protein = substrate: CCn1c(=NN=c2sc3cc(S(=O)(=O)O)ccc3n2CC)sc2cc(S(=O)(=O)O)ccc21; test: purified protein; format: biochemical, Cerrena; settings: 0% acetone pre-incubation, pH 3.0 citrate-phosphate, 30 °C, 1.25–800 μM ABTS

Molecule | Km (AbLac) [µM] | Km (TvLac) [µM] | Km (purified protein) [µM] | kcat/Km (purified protein) [M⁻¹ s⁻¹]
CCn1c(=NN=c2sc3cc(S(=O)(=O)O)ccc3n2CC)sc2cc(S(=O)(=O)O)ccc21 [ABTS, 2,2′-azino-bis(3-ethylbenzothiazoline-6-sulphonic acid)] | 212 ± 19.5 | 29 ± 2.1 |  | 
B1 |  |  | 24 ± 3.9 | 1.47e+09 ± 3.1e+08
